Experiments:
Type in all cases: functional
NCI-H23 = experiment: Cytotoxicity against human NCI-H23 cells assessed as cell growth level at 100 nM after 48 hrs by sulforhodamine B assay
SNB-75 = experiment: Cytotoxicity against human SNB75 cells after 48 hrs by sulforhodamine B assay; conditions: SNB-75, 48 h
Malme-3M = experiment: Cytotoxicity against human MALME-3M cells assessed as cell growth level at 10 uM after 48 hrs by sulforhodamine B assay
DU-145 [1] = experiment: Cytotoxicity against human DU145 cells assessed as cell growth level at 1 uM after 48 hrs by sulforhodamine B assay
A498 = experiment: Cytotoxicity against human A498 cells after 48 hrs by sulforhodamine B assay; conditions: A498, 48 h
[2] = Cytotoxicity against human NCI-ADR-RES cells assessed as cell growth level at 100 nM after 48 hrs by sulforhodamine B assay
KM12 = experiment: Cytotoxicity against human KM12 cells assessed as cell growth level at 100 nM after 48 hrs by sulforhodamine B assay
SK-MEL-5 = experiment: Cytotoxicity against human SK-MEL-5 cells after 48 hrs by sulforhodamine B assay; conditions: SK-MEL-5, 48 h
SK-MEL-28 = experiment: Cytotoxicity against human SK-MEL-28 cells assessed as cell growth level at 10 uM after 48 hrs by sulforhodamine B assay
U-251 = experiment: Cytotoxicity against human U251 cells assessed as cell growth level at 100 nM after 48 hrs by sulforhodamine B assay
SN12C = experiment: Cytotoxicity against human SN12C cells assessed as cell growth level at 10 uM after 48 hrs by sulforhodamine B assay
A549 = experiment: Cytotoxicity against human A549/ATCC cells assessed as cell growth level at 100 nM after 48 hrs by sulforhodamine B assay
HCT-116 = experiment: Cytotoxicity against human HCT116 cells after 48 hrs by sulforhodamine B assay; conditions: HCT-116, 48 h
M14 [3] = experiment: Cytotoxicity against human M14 cells assessed as cell growth level at 100 nM after 48 hrs by sulforhodamine B assay
SNB-19 [4] = experiment: Cytotoxicity against human SNB19 cells assessed as cell growth level at 100 nM after 48 hrs by sulforhodamine B assay
SF-268 [5] = experiment: Cytotoxicity against human SF268 cells assessed as cell growth level at 10 uM after 48 hrs by sulforhodamine B assay
SNB-19 [6] = experiment: Cytotoxicity against human SNB19 cells after 48 hrs by sulforhodamine B assay; conditions: SNB-19, 48 h
MDA-MB-231 = experiment: Cytotoxicity against human MDA-MB-231/ATCC cells assessed as cell growth level at 10 uM after 48 hrs by sulforhodamine B assay
HOP-92 [7] = experiment: Cytotoxicity against human HOP92 cells assessed as cell growth level at 100 uM after 48 hrs by sulforhodamine B assay
UACC-62 = experiment: Cytotoxicity against human UACC62 cells assessed as cell growth level at 100 uM after 48 hrs by sulforhodamine B assay
RPMI-8226 = experiment: Cytotoxicity against human RPMI8226 cells assessed as cell growth level at 100 nM after 48 hrs by sulforhodamine B assay
DU-145 [8] = experiment: Cytotoxicity against human DU145 cells assessed as cell growth level at 100 uM after 48 hrs by sulforhodamine B assay
HL-60(TB) = experiment: Cytotoxicity against human HL-60(TB) cells assessed as cell growth level at 1 uM after 48 hrs by sulforhodamine B assay
NCI-H226 = experiment: Cytotoxicity against human NCI-H226 cells assessed as cell growth level at 100 nM after 48 hrs by sulforhodamine B assay
M14 [9] = experiment: Cytotoxicity against human M14 cells after 48 hrs by sulforhodamine B assay; conditions: M14, 48 h
SR = experiment: Cytotoxicity against human SR cells assessed as cell growth level at 10 nM after 48 hrs by sulforhodamine B assay
[10] = Cytotoxicity against human NCI-ADR-RES cells assessed as cell growth level at 10 nM after 48 hrs by sulforhodamine B assay
ACHN = experiment: Cytotoxicity against human ACHN cells after 48 hrs by sulforhodamine B assay
OVCAR-8 = experiment: Cytotoxicity against human OVCAR8 cells assessed as cell growth level at 1 uM after 48 hrs by sulforhodamine B assay
K562 = experiment: Cytotoxicity against human K562 cells after 48 hrs by sulforhodamine B assay; conditions: K562, 48 h
MOLT-4 = experiment: Cytotoxicity against human MOLT4 cells assessed as cell growth level at 10 uM after 48 hrs by sulforhodamine B assay
SF-268 [11] = experiment: Cytotoxicity against human SF268 cells assessed as cell growth level at 100 nM after 48 hrs by sulforhodamine B assay
NCI-H522 = experiment: Cytotoxicity against human NCI-H522 cells assessed as cell growth level at 100 uM after 48 hrs by sulforhodamine B assay
HOP-92 [12] = experiment: Cytotoxicity against human HOP92 cells assessed as cell growth level at 100 nM after 48 hrs by sulforhodamine B assay
T47D = experiment: Cytotoxicity against human T47D cells assessed as cell growth level at 100 uM after 48 hrs by sulforhodamine B assay
DU-145 [13] = experiment: Cytotoxicity against human DU145 cells assessed as cell growth level at 10 uM after 48 hrs by sulforhodamine B assay
[14] = read-out: LC50 (the source's name)
[15] = read-out: pLC50 (the source's name) (converted)

Q: Which results are given for `O=c1oc2ccccc2cc1-c1csc(N/N=C/c2c[nH]c3ccccc23)n1`?
A: Activity (NCI-H23): 88%; GI50 (SNB-75; read-out: GI50): 2 µM; CC50 (SNB-75; [14]): > 100 µM; TGI (SNB-75; read-out: TGI): 8.92 µM; GI50 (SNB-75; read-out: pGI50 (converted)): 2 µM; CC50 (SNB-75; [15]): > 100 µM; TGI (SNB-75; read-out: pTGI (converted)): 8.91 µM; Activity (Malme-3M): -10.02%; Activity (DU-145 [1]): 80%; GI50 (A498; read-out: GI50): 2.21 µM; CC50 (A498; [14]): > 100 µM; TGI (A498; read-out: TGI): 8.2 µM; GI50 (A498; read-out: pGI50 (converted)): 2.19 µM; CC50 (A498; [15]): > 100 µM; TGI (A498; read-out: pTGI (converted)): 8.13 µM; Activity [2]: 110%; Activity (KM12): 98%; GI50 (SK-MEL-5; read-out: GI50): 2.09 µM; CC50 (SK-MEL-5; [14]): 15.2 µM; TGI (SK-MEL-5; read-out: TGI): 4.97 µM; GI50 (SK-MEL-5; read-out: pGI50 (converted)): 2.09 µM; CC50 (SK-MEL-5; [15]): 15.1 µM; TGI (SK-MEL-5; read-out: pTGI (converted)): 5.01 µM; Activity (SK-MEL-28): 54.83%; Activity (U-251): 108%; Activity (SN12C): 0.22%; Activity (A549): 92%; GI50 (HCT-116; read-out: GI50): 1.6 µM; CC50 (HCT-116; [14]): 6.49 µM; TGI (HCT-116; read-out: TGI): 3.22 µM; GI50 (HCT-116; read-out: pGI50 (converted)): 1.58 µM; CC50 (HCT-116; [15]): 6.46 µM; TGI (HCT-116; read-out: pTGI (converted)): 3.24 µM; Activity (M14 [3]): 92%; Activity (SNB-19 [4]): 89%; Activity (SF-268 [5]): 14.73%; GI50 (SNB-19 [6]; read-out: GI50): 3.39 µM; CC50 (SNB-19 [6]; [14]): > 100 µM; TGI (SNB-19 [6]; read-out: TGI): 62.1 µM; GI50 (SNB-19 [6]; read-out: pGI50 (converted)): 3.39 µM; CC50 (SNB-19 [6]; [15]): > 100 µM; TGI (SNB-19 [6]; read-out: pTGI (converted)): 61.7 µM; Activity (MDA-MB-231): -37.04%; Activity (HOP-92 [7]): -27%; Activity (UACC-62): -27%; Activity (RPMI-8226): 94%; Activity (DU-145 [8]): -2%; Activity (HL-60(TB)): 26%; Activity (NCI-H226): 104%; GI50 (M14 [9]; read-out: GI50): 1.95 µM; CC50 (M14 [9]; [14]): 9.13 µM; TGI (M14 [9]; read-out: TGI): 4.22 µM; GI50 (M14 [9]; read-out: pGI50 (converted)): 1.95 µM; CC50 (M14 [9]; [15]): 9.12 µM; TGI (M14 [9]; read-out: pTGI (converted)): 4.17 µM; Activity (SR): 94%; Activity [10]: 105%; GI50 (ACHN; read-out: GI50): 1.31 µM; CC50 (ACHN; [14]): 70.8 µM; TGI (ACHN; read-out: TGI): 4.36 µM; GI50 (ACHN; read-out: pGI50 (converted)): 1.32 µM; CC50 (ACHN; [15]): 70.8 µM; TGI (ACHN; read-out: pTGI (converted)): 4.37 µM; Activity (OVCAR-8): 94%; GI50 (K562; read-out: GI50): 3.18 µM; LC50 (K562; read-out: LC50): > 100 µM; TGI (K562; read-out: TGI): 10.4 µM; GI50 (K562; read-out: pGI50 (converted)): 3.16 µM; LC50 (K562; read-out: pLC50 (converted)): > 100 µM; TGI (K562; read-out: pTGI (converted)): 10.5 µM; Activity (MOLT-4): -32.32%; Activity (SF-268 [11]): 88%; Activity (NCI-H522): -80%; Activity (HOP-92 [12]): 94%; Activity (T47D): -35%; Activity (DU-145 [13]): -36.09%

Reference: ChEMBL document CHEMBL3580659, “One-pot multicomponent synthesis of indole incorporated thiazolylcoumarins and their antibacterial, anticancer and DNA cleavage studies” (2015)
